# Results reported in PMC7580722, “Design of new disubstituted imidazo[1,2-b]pyridazine derivatives as selective Haspin inhibitors. Synthesis, binding mode and anticancer biological evaluation” (Journal of Enzyme Inhibition and Medicinal Chemistry, 2020).
# Tests used:
# [1] = biological target: T1, HsCdk2/Cyclin A (Homo sapiens, UniProt P24941); experiment: CDK2 kinase assay; type: biochemical
# T1 construct: made in house; host or cells: baculovirus/Sf9 cells
# Procedure: (§1) Values are IC50 expressed in µM and calculated from dose–response curves (each point on the curves was performed in triplicate). Selectivity indexes (SI; in brackets) are calculated as follows: SI = IC50 kinase X/IC50 Haspin. ND: not determined. *IC50 values obtained using the ADP-Glo methodology (see Experimental section, Supplementary Material). […]
# A, HsCdk9/Cyclin T). Native SscCK1δ /ε and SscGSK3α/β were purified from pig brain whereas HsPlk1, HsCdk1 and HsAurora B were purchased from ProQinase and SignalChem respectively. Kinase assays were performed in […]
# mCi/ml; PerkinElmer) in a final volume of 30 µl as previously reported 51. After 30 min incubation at 30°C, the reaction mix was spotted onto GE healthcare P81 phosphocellulose paper using a FilterMate Harvester (PerkinElmer), and the filter was extensively washed with a 1% phosphoric acid solution. The wet filter-bound radioactivity was determined in the presence of 20 µl scintillation fluid (GE healthcare) with a TopCount® Scintillation and Luminescence Counter (PerkinElmer). IC50 values were calculated from dose-response curves […]
# Kinase activities using the ADP-Glo methodology (ADP-Glo Kinase Assay; Promega) were assayed according to the assay described in Nguyen et al. 52 and Ibrahim et al. 53. […]
# [2] = system: U-2 OS; experiment: Cell viability, monolayer (2D), MTS assay; type: cell-based; conditions: Homo sapiens, U2OS, 48 h
# [3] = system: RnDYRK1A; experiment: DYRK1A kinase assay; type: biochemical, Rn (rat); conditions: SI = IC50 kinase X/IC50 Haspin
# Procedure: as §1
# The reaction was carried out as described in general procedure A using 4 (0.150 g, 0.58 mmol, 1 equiv.), 2-aminopyrimidine-5-boronic acid (0.122 g, 0.88 mmol, 1.5 equiv.) and Cs2CO3 (0.575 g, 1.75 mmol, 3 equiv.). The […]
# The reaction was carried out as described in general procedure A using 4 (0.100 g, 0.39 mmol, 1 equiv.), 1-naphthaleneboronic acid (0.083g, 0.47 mmol, 1.2 equiv.) and Cs2CO3 (0.381 g, 1.17 mmol, 3 equiv.). The crude […]
# Recombinant protein kinases were expressed and purified from E. coli (HsHaspin kinase domain aa470-798, HsCdk5/p25, RnDYRK1A kinase domain aa1-499, HsPIM1, MmCLK1) or baculovirus/Sf9 cells (HsCdk2/Cyclin A, HsCdk9/Cyclin T). […] The wet filter-bound radioactivity was determined in the presence of 20 µl scintillation fluid (GE healthcare) with a TopCount® Scintillation and Luminescence Counter (PerkinElmer). IC50 values were calculated from dose-response curves […]
# [4] = system: SH-SY5Y; experiment: Cell viability, monolayer (2D), MTS assay; type: cell-based; conditions: Homo sapiens, 48 h
# [5] = system: HCT116; experiment: Cell viability, monolayer (2D), MTS assay; type: cell-based; conditions: Homo sapiens, HCT-116, 48 h
# [6] = biological target: T2, HsPLK1 (Homo sapiens, UniProt P53350); experiment: PLK1 kinase assay; type: biochemical; conditions: Table 4
# T2 construct: purchased ProQinase
# Procedure: . We therefore tested our compounds on two obvious candidates, HsCDK1 and HsPLK1 (Polo-like_kinase 1) both required for mitotic entry[50] (Table 4).
# Values are IC50 expressed in µM and calculated from dose–response curves (each point from the curves was performed in duplicate). NR: not relevant. […]
# Recombinant protein kinases were expressed and purified from E. coli (HsHaspin kinase domain aa470-798, HsCdk5/p25, RnDYRK1A kinase domain aa1-499, HsPIM1, MmCLK1) or baculovirus/Sf9 cells (HsCdk2/Cyclin A, HsCdk9/Cyclin T). Native SscCK1δ /ε and SscGSK3α/β were purified from pig brain whereas HsPlk1, HsCdk1 and HsAurora B were purchased from ProQinase and SignalChem respectively. Kinase assays were performed in specific buffers and substrates for each kinase tested in the presence of 15 µM [γ-33P] ATP (3,000 Ci/mmol, 10 mCi/ml; PerkinElmer) in a final volume of 30 µl as previously reported 51. After 30 min incubation at 30°C, the reaction mix was spotted onto GE healthcare P81 phosphocellulose paper using a FilterMate Harvester (PerkinElmer), and the filter was extensively washed with a 1% phosphoric acid solution. The wet filter-bound radioactivity was determined in the presence of 20 µl scintillation fluid (GE healthcare) with a TopCount® Scintillation and Luminescence Counter (PerkinElmer). IC50 values were calculated from dose-response curves
# T2 sequence (P53350 whole entry): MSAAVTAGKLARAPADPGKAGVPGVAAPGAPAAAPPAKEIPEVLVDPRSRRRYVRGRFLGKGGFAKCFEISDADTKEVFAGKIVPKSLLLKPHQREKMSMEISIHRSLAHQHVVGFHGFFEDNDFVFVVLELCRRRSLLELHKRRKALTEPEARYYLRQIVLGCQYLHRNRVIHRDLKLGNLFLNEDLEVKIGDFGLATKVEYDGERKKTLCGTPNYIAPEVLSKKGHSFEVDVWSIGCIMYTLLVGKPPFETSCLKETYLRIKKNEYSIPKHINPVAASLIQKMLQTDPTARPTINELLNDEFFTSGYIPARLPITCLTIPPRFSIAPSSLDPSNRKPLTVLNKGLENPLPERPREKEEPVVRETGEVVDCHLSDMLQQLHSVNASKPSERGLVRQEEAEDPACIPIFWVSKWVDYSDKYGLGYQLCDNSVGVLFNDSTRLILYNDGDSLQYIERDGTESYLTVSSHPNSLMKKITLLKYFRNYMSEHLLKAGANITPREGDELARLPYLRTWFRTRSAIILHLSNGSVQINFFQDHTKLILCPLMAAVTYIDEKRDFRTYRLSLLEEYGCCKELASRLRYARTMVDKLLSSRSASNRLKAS
smiles,measurement,setting,value
c1cc2[nH]ncc2cc1-c1cnc2ccc(OC[C@@H]3CNCCO3)nn12 [Compound 21],selectivity for CDK2 vs Haspin,[1]; SI = IC50 kinase X/IC50 Haspin,716 fold
same,IC50,[1]; read-out: IC50 CDK2,4.3 µM
same,EC50,[2],5.2 µM
same,selectivity for DYRK1A vs Haspin,[3],50 fold
same,EC50,[4],> 10 µM
same,EC50,[5],> 10 µM
same,IC50,[6],> 10 µM
